# Values of other authors in patent US20250368755A1, “PEPTIDE THAT SP[…] TO PPC REGION OF SARS-COV-2 SPIKE PROTEIN AND COMPOSITION FOR […]-COV-2 INFECTION USING THE SAME” (priority 2024, published 2025).
# Biological target: S1/S2 region
# Conditions: known value; read-out: binding affinity of furin for the cleavage of S1/S2 region; cited from earlier work
substance,measurement,value
furin,Kd,0.016 µM
